# Test system: 997537-175-T-J1-PDC complex spheroid viability
# Assay: Anticancer human tumor 997537-175-T-J1-PDC patient-derived colon adenocarcinoma cell line growth inhibition [GQUAD]
# Conditions: for IC50: curve of first compound; for viability, T/C: stronger effect = lower value
# How it was run: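 Viability of tumor cells grown as complex spheroids with endothelial and stromal cells, exposed to drug combinations. Top concentration at or near clinical Cmax (else 10 microM), diluted in half-log increments.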
# [1] = second compound 0.0316 µM, first compound 0.0316 µM
# [2] = second compound 0.0316 µM, first compound 0.316 µM
# [3] = second compound 0.1 µM, first compound 0.0316 µM
# [4] = second compound 0.1 µM, first compound 0.316 µM
# [5] = second compound 0.316 µM, first compound 0.0316 µM
# [6] = second compound 0.316 µM, first compound 0.316 µM
# [7] = second compound 1 µM, first compound 0.0316 µM
# [8] = second compound 1 µM, first compound 0.316 µM
# [9] = second compound 3.16 µM, first compound 0.0316 µM
# [10] = second compound 3.16 µM, first compound 0.316 µM
# [11] = second compound 10 µM, first compound 0.0316 µM
# [12] = second compound 10 µM, first compound 0.316 µM
# [13] = second compound 0.0316 µM, first compound 0.1 µM
# [14] = second compound 0.0316 µM, first compound 1 µM
# [15] = second compound 0.0316 µM, first compound 3.16 µM
# [16] = second compound 0.0316 µM, first compound 10 µM
# [17] = second compound 0.1 µM, first compound 0.1 µM
# [18] = second compound 0.1 µM, first compound 1 µM
# [19] = second compound 0.1 µM, first compound 3.16 µM
# [20] = second compound 0.1 µM, first compound 10 µM
# [21] = second compound 0.316 µM, first compound 0.1 µM
# [22] = second compound 0.316 µM, first compound 1 µM
# [23] = second compound 0.316 µM, first compound 3.16 µM
# [24] = second compound 0.316 µM, first compound 10 µM
# [25] = second compound 1 µM, first compound 0.1 µM
# [26] = second compound 1 µM, first compound 1 µM
# [27] = second compound 1 µM, first compound 3.16 µM
# [28] = second compound 1 µM, first compound 10 µM
# [29] = second compound 3.16 µM, first compound 0.1 µM
# [30] = second compound 3.16 µM, first compound 1 µM
# [31] = second compound 3.16 µM, first compound 3.16 µM
# [32] = second compound 3.16 µM, first compound 10 µM
# [33] = second compound 10 µM, first compound 0.1 µM
# [34] = second compound 10 µM, first compound 1 µM
# [35] = second compound 10 µM, first compound 3.16 µM
# [36] = second compound 10 µM, first compound 10 µM
# 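Note: spheroids exposed to the agents for 7 days.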
# 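Throughout, for viability, T/C: 100% = DMSO vehicle control viability.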
smiles,measurement,setting,value
CCc1c2c(nc3ccc(O)cc13)-c1cc3c(c(=O)n1C2)COC(=O)[C@]3(O)CC + Cc1[nH]c2ccc(F)cc2c1-c1nc2c3cccnc3c3ncccc3c2[nH]1,IC50,second compound 0.0316 µM,11.9 nM
same,IC50,second compound 0.1 µM,9.18 nM
same,IC50,second compound 0.316 µM,11.9 nM
same,IC50,second compound 1 µM,8.52 nM
same,IC50,second compound 3.16 µM,10.7 nM
same,IC50,second compound 10 µM,6.48 nM
same,"viability, T/C","second compound 0.0316 µM, first compound 0.000999 µM",84.3%
same,"viability, T/C","second compound 0.0316 µM, first compound 0.00316 µM",94.4%
same,"viability, T/C","second compound 0.0316 µM, first compound 0.00999 µM",54.2%
same,"viability, T/C",[1],16.6%
same,"viability, T/C","second compound 0.0316 µM, first compound 0.0999 µM",7.8%
same,"viability, T/C",[2],2.95%
same,"viability, T/C","second compound 0.1 µM, first compound 0.000999 µM",75%
same,"viability, T/C","second compound 0.1 µM, first compound 0.00316 µM",74.8%
same,"viability, T/C","second compound 0.1 µM, first compound 0.00999 µM",45.2%
same,"viability, T/C",[3],22%
same,"viability, T/C","second compound 0.1 µM, first compound 0.0999 µM",5.55%
same,"viability, T/C",[4],2.19%
same,"viability, T/C","second compound 0.316 µM, first compound 0.000999 µM",90.5%
same,"viability, T/C","second compound 0.316 µM, first compound 0.00316 µM",94.3%
same,"viability, T/C","second compound 0.316 µM, first compound 0.00999 µM",53.3%
same,"viability, T/C",[5],19.2%
same,"viability, T/C","second compound 0.316 µM, first compound 0.0999 µM",7.44%
same,"viability, T/C",[6],2.71%
same,"viability, T/C","second compound 1 µM, first compound 0.000999 µM",81.9%
same,"viability, T/C","second compound 1 µM, first compound 0.00316 µM",76.6%
same,"viability, T/C","second compound 1 µM, first compound 0.00999 µM",44.4%
same,"viability, T/C",[7],19.6%
same,"viability, T/C","second compound 1 µM, first compound 0.0999 µM",6.99%
same,"viability, T/C",[8],7.31%
same,"viability, T/C","second compound 3.16 µM, first compound 0.000999 µM",69%
same,"viability, T/C","second compound 3.16 µM, first compound 0.00316 µM",56.6%
same,"viability, T/C","second compound 3.16 µM, first compound 0.00999 µM",54%
same,"viability, T/C",[9],22.1%
same,"viability, T/C","second compound 3.16 µM, first compound 0.0999 µM",7.42%
same,"viability, T/C",[10],2.8%
same,"viability, T/C","second compound 10 µM, first compound 0.000999 µM",69.2%
same,"viability, T/C","second compound 10 µM, first compound 0.00316 µM",52.8%
same,"viability, T/C","second compound 10 µM, first compound 0.00999 µM",48%
same,"viability, T/C",[11],17.1%
same,"viability, T/C","second compound 10 µM, first compound 0.0999 µM",3.72%
same,"viability, T/C",[12],2.19%
O=C(NO)c1cnc(N2CCN(S(=O)(=O)c3ccc4ccccc4c3)CC2)nc1 + CN(C)c1ccc(Nc2c3ccc(NC(=O)CCN4CCCC4)cc3nc3cc(NC(=O)CCN4CCCC4)ccc23)cc1,IC50,second compound 0.0316 µM,2410 nM
same,IC50,second compound 0.1 µM,1440 nM
same,IC50,second compound 0.316 µM,2040 nM
same,IC50,second compound 1 µM,1530 nM
same,IC50,second compound 3.16 µM,1610 nM
same,IC50,second compound 10 µM,2120 nM
same,"viability, T/C",[1],96%
same,"viability, T/C",[13],88.2%
same,"viability, T/C",[2],105%
same,"viability, T/C",[14],76.5%
same,"viability, T/C",[15],41.6%
same,"viability, T/C",[16],0.32%
same,"viability, T/C",[3],112%
same,"viability, T/C",[17],90.9%
same,"viability, T/C",[4],91%
same,"viability, T/C",[18],66.8%
same,"viability, T/C",[19],18%
same,"viability, T/C",[20],0.22%
same,"viability, T/C",[5],94.3%
same,"viability, T/C",[21],97.8%
same,"viability, T/C",[6],82.1%
same,"viability, T/C",[22],82.4%
same,"viability, T/C",[23],30.8%
same,"viability, T/C",[24],0.23%
same,"viability, T/C",[7],69.8%
same,"viability, T/C",[25],86.4%
same,"viability, T/C",[8],98.9%
same,"viability, T/C",[26],77.8%
same,"viability, T/C",[27],3.02%
same,"viability, T/C",[28],0.59%
same,"viability, T/C",[9],63.6%
same,"viability, T/C",[29],105%
same,"viability, T/C",[10],105%
same,"viability, T/C",[30],84.1%
same,"viability, T/C",[31],1.75%
same,"viability, T/C",[32],0.47%
same,"viability, T/C",[11],83.4%
same,"viability, T/C",[33],90%
same,"viability, T/C",[12],95.6%
same,"viability, T/C",[34],79%
same,"viability, T/C",[35],34.1%
same,"viability, T/C",[36],0.44%
CC1COCCN1c1cc(-c2ccnn2C)c2ccnc(-c3ccn[nH]3)c2n1 (stereo unspecified) + Cc1cnc(CNC(=O)c2c(=O)c3ccc(N4CCCN(C)CC4)nc3n3c2sc2ccccc23)cn1,IC50,second compound 0.0316 µM,147 nM
same,IC50,second compound 0.1 µM,157 nM
same,IC50,second compound 0.316 µM,< 31.6 nM
same,IC50,second compound 1 µM,> 10000 nM
same,IC50,second compound 3.16 µM,> 10000 nM
same,IC50,second compound 10 µM,< 31.6 nM
same,"viability, T/C",[1],80.7%
same,"viability, T/C",[13],54%
same,"viability, T/C",[2],37.4%
same,"viability, T/C",[14],33.7%
same,"viability, T/C",[15],43.5%
same,"viability, T/C",[16],53.1%
same,"viability, T/C",[3],65.9%
same,"viability, T/C",[17],53.8%
same,"viability, T/C",[4],48.4%
same,"viability, T/C",[18],29.8%
same,"viability, T/C",[19],51.7%
same,"viability, T/C",[20],55.2%
same,"viability, T/C",[5],52.7%
same,"viability, T/C",[21],39%
same,"viability, T/C",[6],34.8%
same,"viability, T/C",[22],37.6%
same,"viability, T/C",[23],48.5%
same,"viability, T/C",[24],45%
same,"viability, T/C",[7],55.3%
same,"viability, T/C",[25],58.5%
same,"viability, T/C",[8],67.5%
same,"viability, T/C",[26],57.5%
same,"viability, T/C",[27],58.2%
same,"viability, T/C",[28],51%
same,"viability, T/C",[9],63.1%
same,"viability, T/C",[29],63.7%
same,"viability, T/C",[10],48.5%
same,"viability, T/C",[30],67.5%
same,"viability, T/C",[31],57.8%
same,"viability, T/C",[32],48%
same,"viability, T/C",[11],43.1%
same,"viability, T/C",[33],52%
same,"viability, T/C",[12],66.7%
same,"viability, T/C",[34],54.9%
same,"viability, T/C",[35],39.8%
same,"viability, T/C",[36],63.3%

# From PubChem BioAssay AID2060487 (Molecular Pharmacology Branch, DTP, NCI, 2025)
